Data on three compounds can be found in patent US20200165194A1, “ADDITIVE COMPOSITION FOR CULTURE MEDIUM, ADDITIVE COMPOUND FOR CULTURE MEDIUM, AND METHOD FOR CULTURE OF CELLS OR TISSUE USING SAME” (NISSAN CHEMICAL CORPORATION, priority 2017, published 2020).

Common to all, as to assay type: cell-based
The test system of data set [1] is Bone marrow-derived human mesenchymal stem cells (BM-hMSC). Nature of the data set: Cells cultured by hanging drop method, ATP assay (Experimental Example 12). As to conditions: for cell number (relative value): BM-hMSC, hanging drop, 5 μM, 2 days, control = 100%; for cell number (in words): bone marrow-derived human mesenchymal stem cells, hanging drop method. Here is the method: (§1) Human epithelial-like cell cancer-derived cell line A431 (manufactured by ATCC) was cultured using 10% FBS and 1% MEM non-essential amino acid solution (MEM NEAA, manufactured by Wako Pure Chemical Industries, Ltd.)-containing EMEM (manufactured by Wako Pure Chemical Industries, Ltd.)). In addition, bone marrow-derived human mesenchymal stem cells (BM-hMSC, manufactured by PromoCell) were cultured using a mesenchymal stem cell proliferation medium (manufactured by PromoCell). Each of the above-mentioned cells in the logarithmic growth phase was washed with PBS, a 0.25 w/v % trypsin-1 mmol/L EDTA (ethylenediaminetetraacetic acid) solution (manufactured by Wako Pure Chemical Industries, Ltd.) was added, and the cells were detached by incubating at 37° C. for 3 min. Each medium was added, the mixture was centrifuged, and the supernatant was removed.
(§2) The cell suspension was seeded by 10 μL in 15 drops on the back surface of the lid of a 3.5 cm dish (manufactured by Falcon, #351008) to form droplets. At this time, as a control, a medium supplemented with DMSO (final concentration of DMSO: 0.05%) was seeded by 10 μL in 15 drops. The lid was returned to a 3.5 cm dish added with 2 mL of PBS, and cultured for 2 days in an incubator at 37° C., 5% CO2. The cultured droplets were collected in a 1.5 mL tube, and the medium was added to a final volume of 150 μL.

For data set [2], the system named is human epithelial-like cell cancer-derived cell line A431. The description is as above. As to conditions: for cell number (in words): A431 cell line, three-dimensional cell culture by the hanging drop method; for cell number (relative value): A431 cell, hanging drop, 5 μM, 2 days, control = 100%. Here is the method: as §1, §2
For data set [3] the test system is unchanged. Nature of the data set: Various human cancer cells-2, 3D culture, ATP assay (Experimental Example 6). As to conditions: 4 days; for viability at 5 µM: Homo sapiens, A-431, 96 h, read-out: number of viable cells (RLU), relative value to control (100%). Here is the method: (§3) Various human-derived cancer cells were precultured (single layer culture) in respective media shown below. […] The above-mentioned cells in the logarithmic growth phase were washed with PBS, a 0.25 w/v % trypsin-1 mmol/L EDTA (ethylenediaminetetraacetic acid) solution (manufactured by Wako Pure Chemical Industries, Ltd.) was added, and adherent cells were detached by incubating at 37° C. for 1-5 min. Each medium was added and the mixture was centrifuged. After resuspension in the same medium, each cell was recovered.
(§4) The aforementioned various cells were suspended in respective deacylated gellan gum-containing or not containing media (deacylated gellan gum concentration was 0.015 w/v %), and seeded in a 96 well low attachment U-bottom plate (manufactured by Corning, #4520, deacylated gellan gum-free medium), or a low attachment flat bottom plate (manufactured by Corning, #3474, deacylated gellan gum-containing medium) at a cell concentration of 700-12000 cells/90 μL/well (all 3D culture). […] The amount of each compound solution to be added was 10 μL/well. As a control, a DMSO solution dissolved in a medium was added (DMSO final concentration 0.1%). […] When compared with the compound no-addition (control), one showing a value of not more than 119% as -, one showing a value of not less than 120% as ◯, and one showing a value of not less than 150% as ⊚ are shown in the eleventh table and the twelfth table. Unperformed test is left blank.

Data set [4] concerns human malignant melanoma-derived cell line A375. The data set is described as above. The conditions noted are these: 4 days; for viability at 5 µM / viability at 10 µM: Homo sapiens, A-375, 96 h, read-out: number of viable cells (RLU), relative value to control (100%). Here is the method: as §3, §4
Data set [5] relates to human prostate cancer-derived cell DU145. The data set is described as above. The conditions noted are these: 4 days. Here is the method:
as §3, §4

Data set [6] concerns human stomach adenocarcinoma-derived cell line AGS. The description is as above. The conditions noted are these: 4 days; for viability at 5 µM / viability at 10 µM: Homo sapiens, 96 h, read-out: number of viable cells (RLU), relative value to control (100%). Here is the method:
as §3, §4

Data set [7] has as its system human uterus cervix cancer-derived cell line HeLa. The description is as above. As to conditions: 4 days. Here is the method:
as §3, §4

Setting [8] is: low attachment U-bottom plate, 5 μM.
The mark [9] stands for this setting: low attachment U-bottom plate, 10 μM.
Setting [10] is: low attachment flat bottom plate (gellan gum medium), 5 μM.
[11] abbreviates: low attachment flat bottom plate (gellan gum medium), 10 μM.

Read-outs that look alike come from different tables or passages of the source. Where only a bound is given, the exact number is not on record here.

Consider `CCC(=NNC(=O)C(CC)Nc1ccccc1)c1ccc(O)c(C)c1O` (stereo not shown) [k-1:H-7], for which, in data set [1], the “cell number (relative value)” value is given as 206% and the “cell number (in words)” value is “showed an effect of increasing the number”. Also, in data set [2], the “cell number (in words)” value is “showed an effect of increasing the number” and the “cell number (relative value)” value turned out to be 232%.

As to `CC/C(=N\NC(=O)C(C)Nc1ccccc1)c1ccc(O)c(C)c1O` (stereo not shown) [k-1:B-1], the “number of viable cells (RLU), relative value to control (100%)” value (“number … relative value to control (100%)” below) in data set [3] (setting [8]), in data set [3] (setting [9]), in data set [3] (setting [10]), in data set [3] (setting [11]), in data set [4] (setting [8]) and in data set [4] (setting [9]) was “⊙” throughout. In addition, the “number … relative value to control (100%)” value in data set [5] (setting [8]), in data set [5] (setting [9]), in data set [5] (setting [10]), in data set [5] (setting [11]), in data set [6] (setting [8]) and in data set [6] (setting [9]) was “⊙” throughout. The “number … relative value to control (100%)” value in data set [6] (setting [11]), in data set [7] (setting [8]), in data set [7] (setting [9]), in data set [7] (setting [10]) and in data set [7] (setting [11]) was “⊙” each time. The viability at 5 µM in data set [4] (setting [10]) and in data set [6] (setting [10]) was more than 120% throughout. In addition, in data set [4] (setting [11]), the viability at 10 µM was more than 120%. The “cell number (relative value)” value in data set [1] is 223%; in data set [2], 227%. Further, the “cell number (in words)” value in data set [1] and in data set [2] was “showed an effect of increasing the number” throughout.

In the case of `CC/C(=N\NC(=O)NCc1ccccc1)c1ccc(O)c(C)c1O` [k-1:I-1], the viability at 5 µM in data set [3] (setting [8]) was 120 to 150%; in data set [3] (setting [10]), less than 119%; in data set [4] (setting [8]), 120 to 150%; in data set [4] (setting [10]), less than 119%; in data set [5] (Homo sapiens, DU-145, 96 h, low attachment U-bottom plate, 5 μM, read-out: number of viable cells (RLU), relative value to control (100%)) it was less than 119%; in data set [5] (Homo sapiens, DU-145, 96 h, low attachment flat bottom plate (gellan gum medium), 5 μM, read-out: number of viable cells (RLU), relative value to control (100%)) it was 120 to 150%. The viability at 5 µM in data set [6] (setting [8]) was less than 119%; in data set [6] (setting [10]), 120 to 150%; in data set [7] (Homo sapiens, 96 h, low attachment U-bottom plate, 5 μM, read-out: number of viable cells (RLU), relative value to control (100%)), less than 119%. Moreover, the “number … relative value to control (100%)” value in data set [3] (setting [9]), in data set [3] (setting [11]) and in data set [5] (setting [11]) was “⊙” each time. Moreover, the viability at 10 µM in data set [4] (setting [9]) was 120 to 150%; in data set [4] (setting [11]) it was less than 119%; in data set [5] (Homo sapiens, DU-145, 96 h, low attachment U-bottom plate, 10 μM, read-out: number of viable cells (RLU), relative value to control (100%)) it was 120 to 150%; in data set [6] (setting [9]), 120 to 150%; in data set [6] (setting [11]), 120 to 150%; in data set [7] (Homo sapiens, 96 h, low attachment U-bottom plate, 10 μM, read-out: number of viable cells (RLU), relative value to control (100%)), less than 119%.
